Measurements from PubChem BioAssay (NCI).
Values joined by “and” are separate entries in the source; they are usually repeats but may differ in a detail not shown here. Equal entries are not always repeated.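 Five concentrations, 48 hours, 96-well plates. GI50 is the concentration that inhibits growth by half. The concentration for full growth arrest is given as TGI.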

How the values were obtained:
Experiment in all cases: NCI anticancer screen, dose series, 48 h
CAKI-1 renal = tested on: CAKI-1 renal
HCT-116 colon = tested on: HCT-116 colon
HOP-92 NSCLC = tested on: HOP-92 NSCLC
MDA-MB-231 breast = tested on: MDA-MB-231 breast
MOLT-4 leukemia = tested on: MOLT-4 leukemia
RXF 393 renal = tested on: RXF 393 renal
SN12C renal = tested on: SN12C renal
SNB-75 CNS = tested on: SNB-75 CNS
T-47D breast = tested on: T-47D breast
UACC-62 melanoma = tested on: UACC-62 melanoma

| Compound | TGI (CAKI-1 renal) | TGI (HCT-116 colon) | TGI (HOP-92 NSCLC) | TGI (MDA-MB-231 breast) | TGI (MOLT-4 leukemia) | TGI (RXF 393 renal) | TGI (SN12C renal) | TGI (SNB-75 CNS) | TGI (T-47D breast) | TGI (UACC-62 melanoma) | GI50 (CAKI-1 renal) [µM] | GI50 (HCT-116 colon) [µM] | GI50 (HOP-92 NSCLC) [µM] | GI50 (MDA-MB-231 breast) [µM] | GI50 (MOLT-4 leukemia) [µM] | GI50 (RXF 393 renal) [µM] | GI50 (SN12C renal) [µM] | GI50 (SNB-75 CNS) [µM] | GI50 (T-47D breast) [µM] | GI50 (UACC-62 melanoma) [µM] |
| --- | --- | --- | --- | --- | --- | --- | --- | --- | --- | --- | --- | --- | --- | --- | --- | --- | --- | --- | --- | --- |
| CCc1[nH]c(=O)nc(N)c1-c1ccc(N2CCCCC2)c([N+](=O)[O-])c1 | > 100 µM | > 100 µM | > 100 µM | > 100 µM | > 100 µM | > 100 µM | > 100 µM | > 100 µM | > 100 µM | > 100 µM |  |  |  |  |  |  |  |  |  |  |
| CCN(CC)c1ccc(C(=N)c2ccc(N(CC)CC)cc2)cc1 | 5.85 µM | 1.35 µM | 2.72 µM | 3.23 µM | 4.36 µM | 2.45 µM | 5.82 µM | 6.89 µM | 1.73 µM | 2.24 µM | 0.588 | 0.323 | 0.607 | 1.15 | 0.594 | 0.731 | 1.34 | 0.849 | 0.311 | 0.621 |
| Cc1cc(SCC(=O)c2ccccc2)nc2ccccc12 | > 100 µM | > 100 µM | > 100 µM | > 100 µM | > 100 µM | > 100 µM | > 100 µM | > 100 µM | > 100 µM | > 100 µM |  |  |  |  |  |  |  |  |  |  |
| O=C(N/N=C/c1cccc(O)c1O)c1ccccc1 | 16.5 µM | > 100 µM | 8.38 µM | > 100 µM | > 39.2 µM | > 100 µM | > 100 µM | 85.6 µM | > 100 µM | 5.32 µM | 0.519 | 0.388 | 0.329 | 0.495 | 0.362 | 1.98 | 0.73 | 4.66 | 2.65 | 0.902 |
| O=C(Nc1ccc(Cl)cc1)c1cc(-c2ccc(F)cc2)c2sc(=O)[nH]c2n1 | 4.99 µM | 2.96 µM | 0.94 µM | 4.78 µM | 4.02 µM | 3.99 µM | 7.93 µM | 5.33 µM | 5.25 µM | 2.32 µM | 2.15 | 1.43 | 0.204 | 1.77 | 0.721 | 1.7 | 1.99 | 2.02 | 0.739 | 0.366 |
| CC1CN1CC(O)C(O)CN1CC1C (centres undefined) | 4.54 µM | > 100 µM | > 28.6 µM | 45.3 µM | 3.15 µM | 8.77 µM | > 67.8 µM | > 63 µM | > 71.4 µM | > 53.2 µM | 0.229 | 2.29 | 6.12 | 13.9 | 0.234 | 2.04 | 0.692 | 4.08 | 2.87 | 2.99 |
| c1ccc(C2=NNC3c4ccccc4-c4ccccc4N3C2)cc1 (centres undefined) | > 100 µM | > 100 µM | > 100 µM | > 100 µM | 56.9 µM | > 100 µM | > 100 µM | 66.1 µM | 92.4 µM | 35.2 µM |  |  |  |  |  |  |  |  |  |  |
| CCC1(O)C(=O)OCc2c1cc1n(c2=O)Cc2cc3ccc(C=O)cc3nc2-1 (centres undefined) | 19.2 µM and 8.81 µM | 7.29 µM and 16.4 µM | 42 µM and 84.4 µM | 50 µM and 68.2 µM | 1.78 µM and 1.05 µM | 20.8 µM and 13.1 µM | 50 µM and 7.53 µM | 30.8 µM and 14.5 µM | 3.31 µM and 8.72 µM | 3.44 µM and 3.71 µM | 1.99 | 0.519 |  | 19.4 | 0.209 | 4.92 | 1.39 |  | 0.412 | 0.77 |
| NCCCC[C@@H]1NC(=O)[C@H]2CCCN2C(=O)[C@H](Cc2ccccc2)NC(=O)[C@H](Cc2ccccc2)CNC1=O | > 100 µM | > 100 µM | > 100 µM | > 100 µM | > 100 µM | > 100 µM | > 100 µM | > 100 µM | > 100 µM | > 100 µM | > 100 | > 100 | 44.1 | > 100 | > 100 | > 100 | > 100 | > 100 | > 100 | > 100 |
| Clc1nc(Cl)c2ncn(Cc3cccc(COc4cccc(OCc5cccc(Cn6cnc7c(Cl)nc(Cl)nc76)c5)c4)c3)c2n1 | > 100 µM |  | 69.2 µM | > 100 µM | > 100 µM | > 100 µM | > 100 µM | > 100 µM | > 100 µM | > 100 µM | > 100 |  | 15.6 | 27.2 | 4.73 | 7.2 | > 100 | > 100 | 25.8 | 60 |
| CC/C=C\C[C@@H]1C/C=C2/C(=O)C=C[C@H]2C/C=C\CCCC(=O)O1 | 1.77 µM | 0.32 µM | 4.97 µM | 6.59 µM | 2.71 µM | 1.73 µM | 4.01 µM | 2.6 µM | 6.28 µM | 2.66 µM | 0.42 | 0.133 | 2.25 | 1.56 | 0.551 | 0.492 | 0.545 | 1.18 | 1.6 | 0.735 |
| CCCCN=C(N)c1ccc(OCCSCCOc2ccc(C(N)=NCCCC)cc2)cc1 | > 100 µM | > 100 µM | 14.6 µM | > 100 µM | > 100 µM | > 100 µM | > 100 µM | 16.2 µM | 24.8 µM | > 100 µM | > 100 | 4.46 | 1.44 | 16.9 | 20.9 | 43.2 | 1.76 | 1.09 | 1.83 | 6.12 |
| COc1cc(NC(=O)c2cc(O)c(CC=C(C)C)c(O)c2)cc2c1O[C@]1(C)CC[C@@H](O)C(C)(C)[C@H]1C2 | > 100 µM | 15.4 µM |  | 19.8 µM | 7.87 µM | 2.34 µM | 36.6 µM | 25.9 µM | 22.6 µM | 8.27 µM | 3.17 | 3.37 |  | 3.56 | 2.07 | 0.434 | 8.83 | 0.772 | 2.44 | 2.41 |
| Nc1ncc(-c2cnn(CCO)c2)c2scc(-c3ccc(NC(=O)Nc4cccc(F)c4)cc3)c12 | 2.2 µM | 3.18 µM | 0.733 µM | 2.91 µM | 2.34 µM | 1.13 µM | 6.59 µM | 1.74 µM | 5.93 µM | 1.78 µM | 0.32 | 0.206 | 0.227 | 1.14 | < 0.0226 | 0.241 | 0.186 | 0.271 | 1.32 | 0.37 |
| COc1cc(C2=NN(C(C)=O)C(c3ccc(OC(C)=O)cc3OC(C)=O)O2)c(OC(C)=O)c2ccccc12 (centres undefined) | > 21.1 µM | 12.2 µM | 30.7 µM | > 56.4 µM | 8.5 µM | 12.5 µM | > 43.8 µM | 29.6 µM | 9.97 µM | 9.67 µM | 0.465 | 0.346 | 2.07 | 0.543 | 0.44 | 1 | 0.864 | 2.28 | 1.12 | 0.897 |
| COC(=O)Nc1nc2ccc(Oc3ccc(NC(=O)Nc4ccccc4)cc3)cc2[nH]1 | > 21.7 µM | > 10.4 µM | 11.1 µM | 10.3 µM | > 10.3 µM | 0.533 µM | > 10.9 µM | 7.15 µM | 21.7 µM | 4.5 µM | 3.4 | 0.119 | 0.555 | 0.32 | 0.184 | 0.069 | 0.452 | 0.115 | 0.131 | 0.0933 |
| COc1cc[nH]c1/C=C1\C(=O)Nc2ccccc21 | > 11.5 µM | > 25 µM | > 21 µM | > 25 µM | > 25 µM | > 25 µM | > 25 µM | > 25 µM | > 25 µM | > 25 µM | 1.04 | 5.66 | 4.34 | 4.87 | 11 | 5.33 | 7.36 | 5.9 | 4.05 | 8.58 |
| COc1ccc2c(c1)C=C([N+](=O)[O-])C(C1OC(C)(C)OC1C1COC(C)(C)O1)O2 (centres undefined) | 13.9 µM | 4.04 µM | 37.8 µM | 6.6 µM | 6.51 µM | 8.7 µM | 19.7 µM | 28.2 µM | 26.6 µM | 3.72 µM |  |  |  |  |  |  |  |  |  |  |
| O=C(CCl)Nc1ccc(Cl)cc1 | 3.31 µM | 10.2 µM | 20.7 µM | 25.9 µM |  | 4.43 µM | 22.9 µM | 21.1 µM | 15.6 µM | 17 µM | 1.59 | 2.7 | 6.67 | 5.24 |  | 2.14 | 3.4 | 7.43 | 3.8 | 3.6 |
| Fc1cc(F)c(COc2cc(Cn3cnc4c(Cl)nc(Cl)nc43)ccc2C23CC4CC(CC(C4)C2)C3)cc1F | 22.8 µM | 28.5 µM | 32.1 µM | 32.7 µM |  | 29.7 µM | 24.9 µM | 52.1 µM | 45.1 µM | 25.2 µM | 10.4 | 15.2 | 17.6 | 17.5 |  | 15.3 | 11 | 21.7 | 16.7 | 12.5 |
| O=C1NC(=O)c2ccc([N+](=O)[O-])c3cccc1c23 | 39 µM | 23.9 µM | 37.2 µM | 34.5 µM |  | 29.1 µM | 32.1 µM | 85.9 µM | 44 µM | 27 µM |  |  |  |  |  |  |  |  |  |  |
